Active and inactive are the calls of the source. No cut-off for these calls is given here.
target: not listed separately; experiment: Inhibition of Baker's yeast alpha-glucosidase using pNGP as substrate after 30 mins by spectrophotometric analysis; parameters: species or system Saccharomyces cerevisiae

Structure (SMILES)	IC50
COC(=O)CC1Oc2ccccc2-c2ccc3c(c21)C(=O)C(=O)N3Cc1ccccc1 (stereo not drawn)	12.1 µM
Cc1c2c(cc3c1N(Cc1ccc(C(F)(F)F)cc1)C(=O)C3=O)-c1ccccc1OC2CC(=O)O (stereo not drawn)	160 µM
CN1C(=O)C(=O)c2c1ccc1c2C(CC(=O)Nc2ccccc2)Nc2ccccc2-1 (stereo not drawn)	226 µM
COC(=O)CC1Nc2ccccc2-c2ccc3c(c21)C(=O)C(=O)N3C (stereo not drawn)	287 µM
Nc1ccc(-c2ccc(NC(=O)CC3Oc4ccccc4-c4ccc5c(c43)C(=O)C(=O)N5Cc3ccc(C(F)(F)F)cc3)cc2)cc1 (stereo not drawn)	0.7 µM
Cc1c2c(cc3c1N(C)C(=O)C3=O)-c1ccccc1OC2CC(=O)Nc1ccccc1 (stereo not drawn)	36.1 µM
CN1C(=O)C(=O)c2c1ccc1c2C(CC(=O)O)Nc2ccccc2-1 (stereo not drawn)	187 µM
O=C(CC1Oc2ccccc2-c2ccc3c(c21)C(=O)C(=O)N3Cc1ccc(C(F)(F)F)cc1)Nc1ccccc1 (stereo not drawn)	4 µM
COC(=O)CC1Oc2ccccc2-c2cc3c(c(C)c21)N(Cc1ccc(C(F)(F)F)cc1)C(=O)C3=O (stereo not drawn)	26.3 µM
CN(C)CCNC(=O)CC1Oc2ccccc2-c2ccc3c(c21)C(=O)C(=O)N3Cc1ccc(C(F)(F)F)cc1 (stereo not drawn)	162 µM
O=C1C(=O)N(Cc2ccc(C(F)(F)F)cc2)c2ccc3c(c21)C(CC(=O)N1CCOCC1)Oc1ccccc1-3 (stereo not drawn)	> 300 µM
CNC(=O)CC1Oc2ccccc2-c2ccc3c(c21)C(=O)C(=O)N3Cc1ccc(C(F)(F)F)cc1 (stereo not drawn)	11.8 µM
O=C1C(=O)N(Cc2ccc(C(F)(F)F)cc2)c2ccc3c(c21)C(CC(=O)N1CCCCC1)Oc1ccccc1-3 (stereo not drawn)	4.4 µM
COC(=O)CC1Nc2ccccc2-c2ccc3c(c21)C(=O)C(=O)N3Cc1ccc(C(F)(F)F)cc1 (stereo not drawn)	37.2 µM
CNC(=O)CC1Oc2ccccc2-c2cc3c(c(C)c21)N(C)C(=O)C3=O (stereo not drawn)	> 300 µM
Cc1c2c(cc3c1N(C)C(=O)C3=O)-c1ccccc1OC2CC(=O)O (stereo not drawn)	> 300 µM
O=C(CC1Nc2ccccc2-c2ccc3c(c21)C(=O)C(=O)N3Cc1ccc(C(F)(F)F)cc1)Nc1ccccc1 (stereo not drawn)	4.6 µM
Nc1ccc(-c2ccc(NC(=O)CC3Nc4ccccc4-c4ccc5c(c43)C(=O)C(=O)N5Cc3ccc(C(F)(F)F)cc3)cc2)cc1 (stereo not drawn)	1.9 µM

Structure (SMILES)	IC50
O=C(O)CC1Oc2ccccc2-c2ccc3c(c21)C(F)(F)C(=O)N3Cc1ccc(C(F)(F)F)cc1 (stereo not drawn)	67 µM
COC(=O)CC1Oc2ccccc2-c2ccc3c(c21)C(=O)C(=O)N3Cc1ccc(C(F)(F)F)cc1 (stereo not drawn)	15.7 µM
Cc1cc2c(c3c1N(Cc1ccc(C(F)(F)F)cc1)C(=O)C3=O)C(CC(=O)O)Oc1ccccc1-2 (stereo not drawn)	51.5 µM
COC(=O)CC1Oc2ccccc2-c2cc3c(c(C)c21)N(C)C(=O)C3=O (stereo not drawn)	18.5 µM
COC(=O)CC1Oc2ccccc2-c2ccc3c(c21)C(=O)C(=O)N3C (stereo not drawn)	105 µM
Cc1c2c(cc3c1N(C)C(=O)C3=O)-c1ccccc1OC2CC(=O)Nc1ccc(-c2ccc(N)cc2)cc1 (stereo not drawn)	5.2 µM
O=C(O)CC1Nc2ccccc2-c2ccc3c(c21)C(=O)C(=O)N3Cc1ccc(C(F)(F)F)cc1 (stereo not drawn)	80 µM
NC(=O)CC1Oc2ccccc2-c2ccc3c(c21)C(=O)C(=O)N3Cc1ccc(C(F)(F)F)cc1 (stereo not drawn)	43.9 µM
O=C1C(=O)N(Cc2ccc(C(F)(F)F)cc2)c2ccc3c(c21)C(CC(=O)N1CCNCC1)Oc1ccccc1-3 (stereo not drawn)	32.8 µM
O=C(O)CC1Oc2ccccc2-c2ccc3c(c21)C(=O)C(=O)N3Cc1ccc(C(F)(F)F)cc1 (stereo not drawn)	4.8 µM
O=C(O)CC1Oc2ccccc2-c2ccc3c(c21)/C(=N/O)C(=O)N3Cc1ccc(C(F)(F)F)cc1 (stereo not drawn)	47.7 µM
COC(=O)CC1Oc2ccccc2-c2cc3c(cc21)N(C)C(=O)C3=O (stereo not drawn)	180 µM
COC(=O)CC1Nc2ccccc2-c2ccc3c(c21)C(=O)C(=O)N3Cc1ccc(OC)cc1 (stereo not drawn)	45.3 µM
COC(=O)CC1Oc2ccccc2-c2ccc3c(c21)C(=O)C(=O)N3Cc1ccc(OC)cc1 (stereo not drawn)	32.3 µM
COc1ccc(NC(=O)CC2Oc3ccccc3-c3ccc4c(c32)C(=O)C(=O)N4Cc2ccc(C(F)(F)F)cc2)cc1 (stereo not drawn)	5.1 µM
O=C(O)CC1Oc2ccccc2-c2ccc3c(c21)C(=O)C(=O)N3Cc1ccccc1 (stereo not drawn)	16 µM
CN1C(=O)C(=O)c2c1ccc1c2C(CC(=O)Nc2ccc(-c3ccc(N)cc3)cc2)Nc2ccccc2-1 (stereo not drawn)	8.4 µM
O=C(CC1Oc2ccccc2-c2ccc3c(c21)C(=O)C(=O)N3Cc1ccc(C(F)(F)F)cc1)Nc1ccc(O)cc1 (stereo not drawn)	6.2 µM

system: Saccharomyces cerevisiae; experiment: Binding affinity to Baker's yeast alpha-glucosidase after 30 mins by tryptophan fluorescence spectrophotometric method

Structure (SMILES)	Activity
Nc1ccc(-c2ccc(NC(=O)CC3Oc4ccccc4-c4ccc5c(c43)C(=O)C(=O)N5Cc3ccc(C(F)(F)F)cc3)cc2)cc1 (stereo not drawn)	Dose-dependent effect

system: Saccharomyces cerevisiae; experiment: […] inhibition of Baker's yeast alpha-glucosidase at 0.5 to 1 uM after 30 mins by Lineweaver-Burk plot method

Structure (SMILES)	inhibition
Nc1ccc(-c2ccc(NC(=O)CC3Oc4ccccc4-c4ccc5c(c43)C(=O)C(=O)N5Cc3ccc(C(F)(F)F)cc3)cc2)cc1 (stereo not drawn)	Active

system: Saccharomyces cerevisiae; experiment: Irreversible inhibition of Baker's yeast alpha-glucosidase at 20 uM after 24 hrs by dialysis method

Structure (SMILES)	inhibition
Nc1ccc(-c2ccc(NC(=O)CC3Oc4ccccc4-c4ccc5c(c43)C(=O)C(=O)N5Cc3ccc(C(F)(F)F)cc3)cc2)cc1 (stereo not drawn)	Active

system: Saccharomyces cerevisiae; experiment: Binding affinity to Baker's yeast alpha-glucosidase assessed as reduction in enzyme surface hydrophobicity after 30 mins by Bis-ANS dye based spectrofluorometric method

Structure (SMILES)	Activity
Nc1ccc(-c2ccc(NC(=O)CC3Oc4ccccc4-c4ccc5c(c43)C(=O)C(=O)N5Cc3ccc(C(F)(F)F)cc3)cc2)cc1 (stereo not drawn)	Dose-dependent effect

system: Saccharomyces cerevisiae; experiment: Mixed type inhibition of Baker's yeast alpha-glucosidase at 1 to 1.5 uM using varying pNGP substrate levels preincubated for 30 mins followed by substrate addition by Lineweaver-Burk plot method

Structure (SMILES)	inhibition
Nc1ccc(-c2ccc(NC(=O)CC3Oc4ccccc4-c4ccc5c(c43)C(=O)C(=O)N5Cc3ccc(C(F)(F)F)cc3)cc2)cc1 (stereo not drawn)	Active

system: Saccharomyces cerevisiae; experiment: Binding affinity to Baker's yeast alpha-glucosidase at 5 to 50 uM after 30 mins by tryptophan fluorescence spectrophotometric method

Structure (SMILES)	Activity
Nc1ccc(-c2ccc(NC(=O)CC3Oc4ccccc4-c4ccc5c(c43)C(=O)C(=O)N5Cc3ccc(C(F)(F)F)cc3)cc2)cc1 (stereo not drawn)	Active

system: Saccharomyces cerevisiae; experiment: Potency index, ratio of acarbose IC50 to compound IC50 for inhibition of Baker's yeast alpha-glucosidase

Structure (SMILES)	Ratio IC50
Nc1ccc(-c2ccc(NC(=O)CC3Oc4ccccc4-c4ccc5c(c43)C(=O)C(=O)N5Cc3ccc(C(F)(F)F)cc3)cc2)cc1 (stereo not drawn)	165 to 170
